Source: PubChem BioAssay (NCI)
Values joined by “and” are separate entries in the source; they are usually repeats but may differ in a detail not shown here. Equal values may be shown once.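 The compound was tested at five concentrations on cells cultured in 96-well plates, with a 48-hour exposure period. Here, GI50 denotes the concentration required for 50% inhibition of growth. At the TGI there is no net growth.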 Starred links: 1 amine or outer side, 2 acyl side, 3 side chain; linkers in the order of their positions; H or OH if unused. Positions of bridges follow the written chain, without caps; N, C: chain ends. Non-standard residues stand in square brackets, D forms with d. Residues, ends and D or L forms follow the SMILES beside them. Chains are numbered I, II in the order given. Actinocin(9to1) = Cc1c2oc3c(C)ccc(C(=O)[*:1])c3nc-2c(C(=O)[*:2])c(N)c1=O; NMeY = CN[CH](Cc1ccc(O)cc1)C(=O)O; Sar = CNCC(=O)O

Columns and labels:
Assay in all cases: DTP human tumour cell line panel, 48 h
DLD-1 colon = test system: DLD-1 colon
DMS 114 small cell lung = test system: DMS 114 small cell lung
DMS 273 small cell lung = test system: DMS 273 small cell lung
HCT-116 colon = test system: HCT-116 colon
HOP-92 NSCLC = test system: HOP-92 NSCLC
KM20L2 colon = test system: KM20L2 colon
LXFL 529 NSCLC = test system: LXFL 529 NSCLC
M19-MEL melanoma = test system: M19-MEL melanoma
NCI-H226 lung = test system: NCI-H226 lung
OVCAR-4 ovarian = test system: OVCAR-4 ovarian
SF-539 CNS = test system: SF-539 CNS
SNB-78 CNS = test system: SNB-78 CNS
NCI/ADR-RES ovarian = test system: NCI/ADR-RES ovarian
HOP-18 NSCLC = test system: HOP-18 NSCLC

SMILES	TGI (HCT-116 colon) [µM]	TGI (HOP-92 NSCLC) [µM]	TGI (NCI-H226 lung) [µM]	TGI (OVCAR-4 ovarian) [µM]	TGI (SF-539 CNS)	TGI (NCI/ADR-RES ovarian) [µM]	other results
Cc1c2n(c(=O)[nH]c1=O)C1OC(CO)C(O2)C1O (stereo not given)	> 100	> 100	> 100	> 100	> 100 µM	–	TGI (DLD-1 colon): > 100 µM; TGI (DMS 114 small cell lung): > 100 µM; TGI (DMS 273 small cell lung): > 100 µM; TGI (KM20L2 colon): > 100 µM; TGI (LXFL 529 NSCLC): > 100 µM; TGI (M19-MEL melanoma): > 100 µM; TGI (SNB-78 CNS): > 100 µM
Cc1ccc(C2SCC(=O)N2c2ccc(-n3c(-c4ccccc4)nc4ccccc4c3=O)cc2)cc1 (stereo not given)	23.1	51.6	57.3	> 100	39.6 µM	63.1	–
Cc1c2oc3c(C)ccc(C(=O)NC4C(=O)NC(C(C)C)C(=O)N5CCCC5C(=O)N(C)CC(=O)N(C)C(Cc5ccc(O)cc5)C(=O)OC4C)c3nc-2c(C(=O)NC2C(=O)NC(C(C)C)C(=O)N3CCCC3C(=O)N(C)CC(=O)N(C)C(Cc3ccc(O)cc3)C(=O)OC2C)c(N)c1=O (stereo not given) (I: TVP[Sar][NMeY] / II: TVP[Sar][NMeY]; ester I:1-I:C, II:1-II:C; linker I:N-II:N via Actinocin(9to1); configuration not given here)	> 1	> 1	> 0.539	> 0.301	0.224 µM and 0.152 µM	> 1	GI50 (HCT-116 colon): 0.00553 µM and 0.00136 µM; GI50 (NCI/ADR-RES ovarian): 0.494 µM
O=C(/C=C/c1ccccc1)Oc1cccc(O)c1	31.8	> 100	> 100	> 100	> 100 µM	> 100	–
NC(N)=NCCN1CC2CCC(CC2)C1	> 100	> 100	> 100	> 100	> 100 µM	> 100	–
CO/N=C(\C(=O)OC(=NC1CCCCC1)NC1CCCCC1)c1csc(NC(c2ccccc2)(c2ccccc2)c2ccccc2)n1	> 10	> 10	> 10	> 10	> 10 µM	> 10	–
NS(=O)(=O)c1ccc(/C=C/c2ccc(O)c(O)c2)cc1	> 100	47.9	60.2	27.2	40.2 µM	71.7	GI50 (HOP-92 NSCLC): 15.8 µM; GI50 (NCI-H226 lung): 14 µM; GI50 (OVCAR-4 ovarian): 11.6 µM; GI50 (SF-539 CNS): 14.2 µM
N#CC1C(=S)NC(c2ccccc2)=CC12CCCCC2 (stereo not given)	62.1	55.3	77.4	85.5	> 100 µM	> 100	–
CC1(C)OC(C(=O)Nc2cc3c4ccccc4ccc3c3ccccc23)C(C(=O)N2CCCCC2)O1 (stereo not given)	> 100	> 100	> 100	> 100	> 100 µM	> 100	–
CC(C)NC(=O)OCc1c(COC(=O)NC(C)C)c(-c2cc[n+](COC(=O)C3CC3)cc2)n2c1CCC2	> 100	> 100	> 100	> 100	> 100 µM	> 100	–
Cn1c(=O)c2c(ncn2CCNC(CO)C(O)c2ccc([N+](=O)[O-])cc2)n(C)c1=O (stereo not given)	> 100	> 100	> 100	> 100	> 100 µM	> 100	–
C=C(Cl)C(=CCl)CCC(Br)C(C)(C)Cl (mixture of isomers)	> 10	> 10	> 10	> 10	> 10 µM	> 10	–
O=C1C2SC34c5c2c2ccccc2n5CCC3CCCN14 (stereo not given)	> 100	> 100	> 100	> 100	> 100 µM	> 100	–
Nc1ccc2c(c1)C(=O)N1CCC[C@H]1C(=O)N2	> 100	> 100	> 100	> 100	> 100 µM	> 100	–
CCOC(=O)CCC(NC(=O)Cc1ccc(Nc2nc3cc(F)c(F)cc3nc2C(=O)OCC)cc1)C(=O)OCC (stereo not given)	> 100	82.1	> 100	> 100	> 100 µM	> 100	–
[N-]=[N+]=NC1(Cc2ccccc2)C(=O)c2cccc3c2N(CCC3)C1=O (stereo not given)	> 100	> 100	> 100	> 100	> 100 µM	–	TGI (DLD-1 colon): > 100 µM; TGI (DMS 114 small cell lung): > 100 µM; TGI (DMS 273 small cell lung): > 100 µM; TGI (HOP-18 NSCLC): > 100 µM; TGI (LXFL 529 NSCLC): > 100 µM; TGI (M19-MEL melanoma): > 100 µM

SMILES	TGI (HCT-116 colon) [µM]	TGI (HOP-92 NSCLC) [µM]	TGI (NCI-H226 lung) [µM]	TGI (OVCAR-4 ovarian) [µM]	TGI (SF-539 CNS)	TGI (NCI/ADR-RES ovarian) [µM]	other results
CN1C(=O)c2ccccc2OC12C=Cc1c(ccc3ccccc13)O2 (stereo not given)	14.2	8.47	48.6	> 52.7	50.4 µM	6.79	–
O=c1[nH]nnc2c1sc1ncccc12	> 100	> 100	> 100	> 100	> 100 µM	> 100	–
C/C=C/C(CC(O)(C(F)(F)F)C(F)(F)F)=N/NC(N)=S	> 10	> 10	> 10	> 10	> 10 µM	> 10	–
CC1(C)C(C#N)C1C1=C(N2CCOCC2)[C@]2(C)C(OC(=O)c3ccccc3)CC[C@@H]2C1 (stereo not given in full)	> 100	> 100	> 100	> 100	> 100 µM	> 100	–
Brc1ccc2[nH]cc(-c3csc(-c4c[nH]c5ccccc45)n3)c2c1	6.66	7.68	4.56	28.1	16.7 µM	10.5	–
Fc1ccc2c(c1)nc1n2C(c2c(Cl)cccc2Cl)SC1 (stereo not given)	18.3	20	37.7	29.7	34.8 µM	27.7	–
CC(=O)Nc1sc(Br)cc1S(=O)(=O)c1ccc(Cl)cc1	> 100	59.5	57.1	64.5	40.6 µM	52.3	–
CCCC(=O)NC(NC1CCCCC1)(C(=O)OCC)C(F)(F)F (stereo not given)	> 100	> 100	> 100	> 100	> 100 µM	> 100	–
CC(C)(C)OC(=O)NC1CCCCC1NC(=O)C(=O)NC1CCCCC1NC(=O)OC(C)(C)C (stereo not given)	> 100	45	> 100	> 100	> 100 µM	> 100	–
CCOC(=O)NC(Nc1ccc(C)cc1)(C(F)(F)F)C(F)(F)F	> 100	> 100	> 100	> 100	> 100 µM	> 100	–
COc1cc(C2c3cc4c(cc3OC(N3CCCCC3)C2C)OCO4)cc(OC)c1O (stereo not given)	25.7	37.3	> 64.2	> 61.2	25.5 µM	18.5	–
CN(C)c1ccc(/C=c2/c3ccccc3n3c2c2c([n+]3C)CCCC2)cc1	0.913	0.141	2.43	4.58	1.42 µM	43.9	–
C=CCc1cccc2cc(C(=O)NCc3ccccc3)c(=N)oc12	70.7	> 100	79.3	> 100	> 100 µM	> 100	–
Cc1ccc(/C=N/Nc2cc(C)c3cccc(C)c3n2)s1	12.4	59.4	37.5	> 100	41.1 µM	22.5	–
N#C[C@H](c1ccccn1)c1nc2ccccc2nc1Cl	> 100	> 100	> 100	> 100	> 100 µM	> 100	–
Cc1ccnc2[nH]c(-c3ccc4ccccc4c3)cc(=O)c12	2.31	4.78	11.4	4.45	6.79 µM	7.14	GI50 (HCT-116 colon): 0.428 µM
